Tests used:
[1] = in vivo; cited from earlier work
ASMase = ASMase activity radioenzymatic assay in BAEC; type: cell-based, bovine; conditions: etoposide 50 μM
Protocol: (§1) BAEC were established from the intima of bovine aorta as described^1. Stock cultures were grown in 100-mm dishes in Dulbecco's modified Eagle's medium (DMEM) supplemented with glucose (1 g/liter), 5% heat-inactivated calf serum (CS), penicillin (50 units/ml), and streptomycin (50 μg/ml). Purified human recombinant bFGF (1 ng/ml; R&D Systems, Inc., Minneapolis, MN) was added every other day during the exponential growth phase. […] These plateau phase cells were either used for experiments, or further sub-cultured (up to a maximum of 10 times) at a split ratio of 1:8. For sub-culturing, monolayers were dissociated with STV (0.05% trypsin and 0.02% EDTA in PBS) for 2-3 min at 22° C., washed twice in 5% CS-DMEM, and resuspended in DMEM with supplements as above. These mild conditions of trypsinization were sufficient to detach cells but not injure, stimulate, or affect cell function in a detectable way. BAEC were maintained at 37° C. in 10% CO2 humidified incubators.
ASMase activity was quantified by radioenzymatic assay using [^14C-methylcholine]sphingomyelin (Amersham) as substrate as described (Schissel et al. J Biol Chem, 271, 18431-18436, 1996). Cell lysates were incubated with [^14C-methylcholine]-sphingomyelin substrate (0.026 mCi/9.5 nmol) in 250 mM sodium acetate, pH 5.0 supplemented with 0.1% Triton X-100 and 1 mM EDTA or 0.1 mM ZnCl. Reactions were terminated after 1 h with CHCl3:MeOH:1N HCl (100:100:1, v/v/v), and [^14C-methylcholine]phosphocholine product in the aqueous layer of the Folch extract was quantified using a Beckman Packard 2200 CA Tricarb scintillation counter. For detection of ASMase activity in patients, 10 μl of serum was used.
To test the effect of chemotherapy on ASMase signaling and ceramide production, BAEC were treated with paclitaxel (100 nM) and ASMase activity was determined by radioenzymatic assay (Rotolo et al, infra) using [^14C-methylcholine] sphingomyelin (Amersham) as substrate (FIG. 1A). Induction of ASMase activity was observed within 5 minutes after treatment, and the activation continued for 30 minutes. Ceramide generation was monitored using the diacylglycerol kinase assay (Stancevic et al. PLoS ONE 8, e69025, 2013). […] In further support of this, pre-incubation of BAEC with nystatin prior to treatment with chemotherapy inhibits chemotherapy-induced apoptosis (FIG. 3).
To determine the generality of the results observed, experiments were carried out using an additional endothelial cell line, human coronary artery endothelial cells (HCAEC); experiments were also performed using a different chemotherapeutic agent. […] Next, HCAEC were treated with paclitaxel (100 nM) (data not shown) and etoposide (50 μM) (FIG. 1F), and ceramide generation was evaluated.
To further establish the generality of ASMase activation by various chemotherapeutic agents, BAEC and HCAEC were treated with increasing doses of cisplatin (0.1-50 μM) (data not shown). […] The ASMase/ceramide pathway was activated by chemotherapeutic agents that belong to different classes of chemotherapeutic agents, such as: taxanes, topoisomerase inhibitors, and nucleoside analog metabolic inhibitors. Since such chemotherapy agents are characterized by distinct mechanisms of action in tumor cells, it is surprising that a group of such distinct agents converges on a common molecular (ASMase/ceramide) axis in endothelium. The present confirmation that distinct chemotherapeutic agents activate the ASMase/ceramide pathway permits the present inventors to take into account the results of experiments using single dose radiotherapy, which has been reported to activate the same pathway (Rao, S. S. et al., Axitinib sensitization of high Single Dose Radiotherapy. Radiotherapy and Oncology: Journal of the European Society for Therapeutic Radiology and Oncology 111, 88-93, doi:10.1016/j.radonc.2014.02.010 (2014)).
Gemcitabine was able to activate ASMase in cultured endothelial cells. […]

ceramide [2] = test: Ceramide generation (diacylglycerol kinase assay) in BAEC; type: cell-based, bovine; conditions: etoposide 50 μM
Protocol: as §1
After treatment, cells were placed on ice, washed with cold PBS, and lipids were extracted by addition of scraped cells in methanol to an equal volume of chloroform and 0.6 volume of buffered saline/EDTA solution (135 mM NaCl, 4.5 mM KCl, 1.5 mM CaCl2), 0.5 mM MgCl2, 5.6 mM glucose, 10 mM HEPES pH 7.2, 10 mM EDTA). Lipids in the organic phase extract were dried under N2 and subjected to mild alkaline hydrolysis (0.1 N methanolic KOH for 1 hour at 37° C.) to remove glycerophospholipids. Samples were re-extracted, and the organic phase was dried under N2. Ceramide contained in each sample was resuspended in a 100 μl reaction mixture containing 150 μg of cardiolipin, 280 μM diethylenetriaminepentaacetic acid, 51 mM octyl-β-glucopyranoside (Calbiochem), 50 mM NaCl, 51 mM imidazole, 1 mM EDTA, 12.5 mM MgCl2, 2 mM dithiothreitol, 0.7% glycerol, 70 μM β-mercaptoethanol, 1 mM ATP, 10 μCi of [γ-^32P]ATP, 35 μg/ml Escherichia coli diacylglycerol kinase (Calbiochem) at pH 6.5. After 30 minutes at room temperature, the reaction was stopped by extraction of lipids with 1 ml of chloroform:methanol:1 N HCl (100:100:1), 170 μl of buffered saline solution (BSS) (135 mM NaCl, 1.5 mM CaCl2, 0.5 mM MgCl2, 5.6 mM glucose, and 10 mM HEPES (pH 72), and 30 μl of 100 mM EDTA. The lower organic phase was dried under N2. Ceramide-1 phosphate was resolved by thin-layer chromatography on silica gel 60 plates (Whatman) using a solvent system of chloroform:methanol:acetic acid (65:15:5, v/v/v) and detected by autoradiography, and incorporated ^32P was quantified by liquid scintillation counting. The level of ceramide was determined by comparison with a standard curve generated concomitantly of known amounts of ceramide.
To test the effect of chemotherapy on ASMase signaling and ceramide production, BAEC were treated with paclitaxel (100 nM) and ASMase activity was determined by radioenzymatic assay (Rotolo et al, infra) using [^14C-methylcholine] sphingomyelin (Amersham) as substrate (FIG. 1A). […] Ceramide generation was monitored using the diacylglycerol kinase assay (Stancevic et al. PLoS ONE 8, e69025, 2013). […]
(§2) To determine the generality of the results observed, experiments were carried out using an additional endothelial cell line, human coronary artery endothelial cells (HCAEC); experiments were also performed using a different chemotherapeutic agent. […] Next, HCAEC were treated with paclitaxel (100 nM) (data not shown) and etoposide (50 μM) (FIG. 1F), and ceramide generation was evaluated. […]

ceramide [3] = test: Ceramide generation in HCAEC; type: cell-based, human; conditions: paclitaxel 100 nM, etoposide 50 μM, cisplatin 0.1-50 μM
Protocol: HCAEC were obtained from Clonetics™ Coronary Artery Endothelial Cell Systems (Cambrex Bio Science Inc.). For HCAEC culturing and sub-culturing Clonetics cell system components were used: EBM®-2, Endothelial Cell Basal Medium-2 with addition of Clonetics EGM-2-MV SingleQuots containing growth supplements (Cambrex) (Biomedical Technologies, Inc.). For sub-culturing, monolayers were dissociated with Clonetics® Trypsin/EDTA solution for 2-3 min at 22° C. at a split ratio of 1:4 to expand the cell population for experiments. HCAEC cultures were maintained at 37° C. in 5% CO2 humidified incubators.
After treatment, cells were placed on ice, washed with cold PBS, and lipids were extracted by addition of scraped cells in methanol to an equal volume of chloroform and 0.6 volume of buffered saline/EDTA solution (135 mM NaCl, 4.5 mM KCl, 1.5 mM CaCl2), 0.5 mM MgCl2, 5.6 mM glucose, 10 mM HEPES pH 7.2, 10 mM EDTA). […] After 30 minutes at room temperature, the reaction was stopped by extraction of lipids with 1 ml of chloroform:methanol:1 N HCl (100:100:1), 170 μl of buffered saline solution (BSS) (135 mM NaCl, 1.5 mM CaCl2, 0.5 mM MgCl2, 5.6 mM glucose, and 10 mM HEPES (pH 72), and 30 μl of 100 mM EDTA. The lower organic phase was dried under N2. Ceramide-1 phosphate was resolved by thin-layer chromatography on silica gel 60 plates (Whatman) using a solvent system of chloroform:methanol:acetic acid (65:15:5, v/v/v) and detected by autoradiography, and incorporated ^32P was quantified by liquid scintillation counting. The level of ceramide was determined by comparison with a standard curve generated concomitantly of known amounts of ceramide.
as §2

BAEC = test: Apoptosis in vitro (Hoechst nuclear staining) in BAEC; type: cell-based, bovine; conditions: 8 hours; for Effect on etoposide-induced apoptosis: BAEC pre-incubated 30 min with bFGF 2 ng/mL, VEGF 2 ng/mL or nystatin 30 μg/mL, etoposide 50 μM
Protocol: Apoptosis was assessed in vitro by examining morphologic changes in nuclear chromatin using bis-benzimide trihydrochloride (Hoechst #33258; Sigma-Aldrich, Milwaukee WI). BAEC and HCAEC monolayer cultures were first detached using 0.25% trypsin and 0.02% EDTA in HBSS and then combined with the floating population of cells. The cell pellet was washed in PBS, resuspended in 3% paraformaldehyde, and incubated for 10 min at 22° C. Following the removal of fixative, cells were resuspended in PBS containing 8 μg/ml of Hoechst-33258. Following a 15-min incubation at 22° C., cells were placed on a glass slide, and scored for the incidence of apoptotic chromatin changes using fluorescence microscope.
Since the ASMase/ceramide pathway is known to play a critical role in endothelial injury and dysfunction, BAEC and HCAEC were treated with paclitaxel (100 nM), etoposide (50 μM), and cisplatin (0.1-50 μM), and endothelial apoptosis was assessed.
To set the basis for experiments involving evaluation of anti-angiogenic therapy in combination with chemotherapy, and the role of ASMase/ceramide pathway in this process, the effects of various factors on the chemotherapy induced cell death were assessed. BAEC were pre-incubated for 30 min with bFGF (2 ng/mL), VEGF (2 ng/mL) or nystatin (30 μg/mL) prior to treatment with etoposide (50 μM), and apoptosis was evaluated after 8 hours using bis-benzamide trihydrochloride staining (FIG. 3).

CRM = CRM detection by confocal microscopy in BAEC; type: cell-based, bovine; conditions: nystatin 30 μg/mL 30 min pre-treatment, paclitaxel 100 nM
Protocol: BAEC were grown on CC2-treated chamber slides (Nalge Nunc International Corp., Naperville, USA) and then exposed to etoposide or paclitaxel with or without pre-incubation with Nystatin (30 μg/ml, Sigma) for 30 min. BAEC were then washed in cold PBS, fixed for 15 min in fresh 2% paraformaldehyde, washed 2× with cold PBS, and blocked with 5% FBS in PBS for 20 min at room temperature. Cells were stained with anti-ceramide MID 15B4 IgM (Alexis Corporation) at 1:50 dilution for 1 hour at room temperature, washed 3× in PBS, and thereafter with Texas Red-conjugated secondary antibody (Jackson Immunoresearch Laboratories, Inc.) at 1:500 dilution for 1 hour at room temperature. Nonspecific fluorescence was excluded using isotype control IgM (BD Biosciences). Cells were washed 3×, stained with DAPI and mounted in 0.1% paraphenylenediamine. Fluorescence was detected using Leica TCS SP2 AOBS 1- and 2-photon laser scanning confocal (DMRXA2 upright stand) microscope coupled with MetaMorph 7.5 (Molecular Devices). Number of CRMs in membranes of endothelial cells was analyzed using MetaMorph 7.5 software that allowed outlining of regions containing CRMs based on two criteria: 1) CRM size (≥500 nm); 2) Intensity of ceramide staining. Mice: asmase^+/+ and asmase^−/− mice, maintained in a SCID background, were propagated using heterozygous breeding pairs and genotyped as previously described (Santana et al. Cell, 86, 189-199, 1996; Grassme et al. Nat Med 9, 322-330 (2003). 6-12 week-old C57BL6/SV129 male mice, purchased from The Jackson Laboratory (Bar Harbor).
To test the effect of chemotherapy on ASMase signaling and ceramide production, BAEC were treated with paclitaxel (100 nM) and ASMase activity was determined by radioenzymatic assay (Rotolo et al, infra) using [^14C-methylcholine] sphingomyelin (Amersham) as substrate (FIG. 1A). Induction of ASMase activity was observed within 5 minutes after treatment, and the activation continued for 30 minutes. Ceramide generation was monitored using the diacylglycerol kinase assay (Stancevic et al. PLoS ONE 8, e69025, 2013). […]

Cc1[nH]c(/C=C2\C(=O)Nc3ccccc32)c(C)c1CCC(=O)O [SU6668]
Average half-life [1]: 3.6 h

CNC(=O)c1ccccc1Sc1ccc2c(/C=C/c3ccccn3)n[nH]c2c1 [axitinib]
Average half-life [1]: 2.5 to 6 h

COc1cc2nccc(Oc3ccc(NC(=O)C4(C(=O)Nc5ccc(F)cc5)CC4)cc3)c2cc1OC [cabozantinib]
Average half-life [1]: 55 h

COc1cc2c(Oc3ccc4[nH]c(C)cc4c3F)ncnc2cc1OCCCN1CCCC1 [cediranib]
Average half-life [1]: 22 to 27 h

COc1cc([C@@H]2c3cc4c(cc3[C@@H](O[C@@H]3O[C@@H]5CO[C@@H](C)O[C@H]5[C@H](O)[C@H]3O)[C@H]3COC(=O)[C@H]23)OCO4)cc(OC)c1O [etoposide]
ASMase activation remained for (ASMase): 30 min | ASMase activation (ASMase; cisplatin 0.1-50 μM, gemcitabine 100 nM time-course): activation of ASMase | Ceramide formation remained for (ceramide [2]): 30 min | Ceramide generation (ceramide [2]; paclitaxel 100 nM, cisplatin 0.1-50 μM): ceramide formation within a few minutes | Ceramide generation (ceramide [3]): leads to the generation of ceramide | Apoptotic response (BAEC; bovine endothelial cells, cisplatin up to 50 μM, etoposide 50 μM alone): significantly induces apoptosis

C[C@@H]1[C@H](O)[C@@H](C)/C=C/C=C/CC/C=C/C=C/C=C/C=C/C(O[C@H]2O[C@H](C)[C@@H](O)[C@H](N)[C@@H]2O)CC2O[C@](O)(CC(O)C(O)CCC(O)CC(O)CC(O)CC(=O)O[C@H]1C)CC(O)C2C(=O)O (some centres unmarked) [nystatin]
Effect on paclitaxel-induced CRM formation (CRM): prevented the formation of CRMs | Effect on etoposide-induced apoptosis (BAEC): substantially inhibits etoposide-induced apoptosis

Cc1ccc(Nc2nccc(N(C)c3ccc4c(C)n(C)nc4c3)n2)cc1S(N)(=O)=O [pazopanib]
Average half-life [1]: about 30 hours

Cc1ccc(C(=O)Nc2ccc(CN3CCN(C)CC3)c(C(F)(F)F)c2)cc1C#Cc1cnc2cccnn12 [ponatinib]
Average half-life [1]: 24 h

CNC(=O)c1cc(Oc2ccc(NC(=O)Nc3ccc(Cl)c(C(F)(F)F)c3)cc2)ccn1 [sorafenib]
Average half-life [1]: 25 to 48 h

CCN(CC)CCNC(=O)c1c(C)[nH]c(/C=C2\C(=O)Nc3ccc(F)cc32)c1C [sunitinib]
Average half-life [1]: 40 to 60 h

Clc1ccc(Nc2nnc(Cc3ccncc3)c3ccccc23)cc1 [vatalanib]
Average half-life [1]: 4.7 h

VEGF
Effect on etoposide-induced apoptosis (BAEC): substantially inhibits etoposide-induced apoptosis

anginex
Half-life [1]: ~0.833 h

bFGF: basic fibroblast growth factor, pro-angiogenic factor
Effect on etoposide-induced apoptosis (BAEC): substantially inhibits etoposide-induced apoptosis

From US12036212B2, “Enhancement of tumor response to chemotherapy by activation of the asmase/ceramide pathway through timed administration of a short-acting anti-angiogenic agent” (Memorial Sloan-Kettering Cancer Center, priority 2014, dated 2024)
